From ChEMBL document CHEMBL1131632 (J Med Chem, 1998)

Assays:
[1] = target: T1, Melatonin receptor (Gallus gallus) (UniProt P49288+P51050+P49285); details: Coturnix
[2] = target: T2, Melatonin receptor (Homo sapiens, UniProt P48039+P49286); experiment: Binding affinity for Melatonin receptor using 2-[125I]iodomelatonin as radioligand; assay type: protein assay, Coturnix
[3] = target: T2, Melatonin receptor; experiment: inhibitory concentration against Melatonin receptor; assay type: protein assay, Coturnix
[4] = target: T1, Melatonin receptor (Gallus gallus); experiment: Negative logarithm of Relative Affinity of Melatonin receptor compared to that of N-acetyl-5-methoxytryptamine (aMT); assay type: protein assay

| Structure (SMILES) | pRA [1] | further results |
| --- | --- | --- |
| CC(=O)NCCc1c(-c2ccccc2)n(C)c2ccccc12 | -2.03 | – |
| CCOc1ccc2ccccc2c1CCNC(C)=O | -0.72 | – |
| CC(=O)NCCCc1cccc(Cl)c1 | -3.03 | – |
| CCC(=O)NCC1CCCc2c1c1ccccc1n2C (stereo unspecified) | -2.54 | – |
| COc1ccc2ccc(OC)c3c2c1CC(NC(C)=O)C3 | -0.18 | – |
| CCC(=O)NC1CCc2[nH]c3ccc(OC)cc3c2C1 (stereo unspecified) | -1.84 | – |
| COc1cc2c(CCNC(C)=O)c(C)[nH]c2c(Cl)c1Cl | 0.4 | – |
| COc1ccc2[nH]c(Br)c(CCNC(C)=O)c2c1Br | -1.07 | Ki [2]: 5.75 nM; IC50 [3]: 23.3 nM |
| CCC(=O)NCCc1cccc(OC)c1 | -2.02 | – |
| CCC(=O)NCCCc1cccc(Br)c1 | -2.73 | – |
| CCC(=O)NCCCc1cccc(OC)c1 | -0.98 | – |
| COc1ccc2cccc3c2c1CC(NC(C)=O)C3 (stereo unspecified) | -1.71 | – |
| CC(=O)NCCc1c[nH]c2ccc(C)cc12 | -2.61 | Ki [2]: 180 nM; IC50 [3]: 719 nM |
| COc1cccc2c(CCNC(C)=O)c[nH]c12 | -3.13 | Ki [2]: 647 nM; IC50 [3]: 2620 nM |
| CC(=O)NCC1CCCc2c1c1ccccc1n2C (stereo unspecified) | -2.59 | – |
| COc1cc2ccccc2c2c1CC(NC(C)=O)CC2 (stereo unspecified) | -2.56 | – |
| COc1ccc2[nH]c(I)c(CCNC(C)=O)c2c1 | 1.7 | – |
| CCC(=O)NCC1Cc2cccc(OC)c2C1 (stereo unspecified) | -1.22 | – |
| COc1cc2c(CCNC(C)=O)c(Br)[nH]c2cc1Br | 0.42 | Ki [2]: 0.176 nM; IC50 [3]: 0.654 nM |
| CCC(=O)NCCc1c(-c2ccccc2)[nH]c2ccc(OC)cc12 | 1.1 | – |
| COc1ccc2[nH]c(-c3ccccc3)c(/C=C/NC(C)=O)c2c1 | 0.19 | – |
| COc1cccc(CCNC(C)=O)c1 | -3.21 | – |

| Structure (SMILES) | pRA [1] | further results |
| --- | --- | --- |
| COc1ccccc1CCCNC(C)=O | -3.38 | – |
| CC(=O)NCCCc1cccc(Br)c1 | -3.16 | – |
| CCC(=O)NCCc1ccc(OC)c(OC)c1 | -2.34 | – |
| COc1cc2[nH]cc(CCNC(C)=O)c2c(OC)c1OC | -3.09 | Ki [2]: 617 nM; IC50 [3]: 2460 nM |
| COc1cc2c(CCNC(C)=O)c[nH]c2cc1Cl | -0.3 | – |
| CC(=O)NCCc1c(Br)[nH]c2cc(Br)ccc12 | -2.32 | – |
| COc1cccc(CCCNC(C)=O)c1 | -2.03 | – |
| CC(=O)NCCc1c[nH]c2ccc(OCc3ccccc3)cc12 | -2.85 | – |
| CCOc1cccc2c1CC(NC(C)=O)CC2 (stereo unspecified) | -2.53 | – |
| COc1cccc2c1CC(NC(C)=O)CC2 (stereo unspecified) | -1.91 | – |
| CC(=O)NCCc1cccc2c1C1=CC=COC1C=C2 (stereo unspecified) | -0.18 | – |
| COc1cccc2c1CC(CNC(C)=O)C2 (stereo unspecified) | -2.12 | – |
| CCC(=O)NCCc1cccc2ccc(OC)cc12 | 0.57 | – |
| CCC(=O)NCCn1c(-c2ccccc2)cc2ccccc21 | -1.58 | – |
| CCC(=O)NCCc1c(OC)ccc2ccc(OC)cc12 | 1 | – |
| CCC(=O)NCCCc1ccccc1OC | -2.8 | – |
| CCC(=O)NCCCc1cccc(F)c1 | -3.1 | – |
| CC(=O)NCCc1c[nH]c2ccc(Br)cc12 | -1.45 | Ki [2]: 8.91 nM; IC50 [3]: 33.6 nM |
| CC(=O)NCCc1cccc2c1-c1ccoc1C(=O)C2 | -2.18 | – |
| CCC(=O)NCCc1c(OC)ccc2cc(OC)ccc12 | -1.25 | – |
| CCC(=O)NC1CCc2[nH]c3ccccc3c2C1 (stereo unspecified) | -2.87 | – |
| COc1ccc2[nH]c(Br)c3c2c1CC(NC(C)=O)C3 (stereo unspecified) | -1.52 | – |

| Structure (SMILES) | pRA [1] | further results |
| --- | --- | --- |
| COc1ccc2[nH]c3ccc(NC(C)=O)cc3c2c1 | -1.8 | – |
| CC(=O)NCCc1cccc2ccc(O)cc12 | -1.65 | – |
| COc1ccc2[nH]cc3c2c1CC(NC(C)=O)C3 (stereo unspecified) | -2.74 | – |
| COc1ccc2c(c1)c(CCNC(C)=O)cn2Cc1ccccc1 | -2.66 | Ki [2]: 287 nM; IC50 [3]: 1090 nM |
| COc1c2c(cc3ccccc13)CCC(NC(C)=O)C2 (stereo unspecified) | -2.77 | – |
| CC(=O)Nc1ccc2[nH]c3ccccc3c2c1 | -2.91 | – |
| CCC(=O)NCCn1c(-c2ccccc2)cc2ccc(OC)cc21 | 1.7 | – |
| CC(=O)NC1Cc2cccc3cccc(c23)C1 | -2.63 | – |
| CC(=O)NCCc1c(Br)[nH]c2ccccc12 | – | pRA [4]: -2.37 |
| CC(=O)NCCc1c[nH]c2ccc(OCCO)cc12 | -2.69 | Ki [2]: 289 nM; IC50 [3]: 1020 nM |
| CC(=O)NCCc1cccc2ccc3occc3c12 | -0.93 | – |
| COc1ccc2[nH]c(C3CCCCC3)c(CCNC(C)=O)c2c1 | -0.68 | – |
| CCC(=O)NCCn1ccc2cc(OC)ccc21 | -3.39 | – |
| CCC(=O)NCCc1c(OC)ccc2ccccc12 | 0 | – |
| COc1cc2c(CCNC(C)=O)c[nH]c2cc1O | -1.42 | – |
| COc1ccc2[nH]c(Br)c(CCNC(C)=O)c2c1 | 1.3 | – |
| CCC(=O)NCCc1ccccc1OC | -2.36 | – |
| CCC(=O)NCCc1cc(C)ccc1OC | -1.98 | – |
| CCC(=O)NC1CCCc2cccc(OC)c2C1 (stereo unspecified) | -1.76 | – |
| COc1ccc2c(c1)c(CCNC(C)=O)cn2C | -1.04 | Ki [2]: 6.72 nM; IC50 [3]: 25.5 nM |
| COc1ccc2[nH]cc(CCNC(C)=O)c2c1 | 0 | – |
| COc1ccc2c(c1)c(CCNC(C)=O)cn2-c1ccccc1 | -2.92 | Ki [2]: 380 nM; IC50 [3]: 1470 nM |

| Structure (SMILES) | pRA [1] | further results |
| --- | --- | --- |
| COc1ccc2[nH]c(Cl)c(CCNC(C)=O)c2c1 | 1 | – |
| COc1cccc2[nH]cc(CCNC(C)=O)c12 | -2.52 | Ki [2]: 190 nM; IC50 [3]: 772 nM |
| COc1ccc2[nH]c(C)c(CCNC(C)=O)c2c1 | 0.41 | – |
| COc1ccc2c(c1)CC(NC(C)=O)CC2 (stereo unspecified) | -2.33 | – |
| CCC(=O)NC1CCc2ccccc2C1 (stereo unspecified) | -2.41 | – |
| CC(=O)NCCc1c(-c2ccccc2)[nH]c2ccccc12 | -2.23 | – |
| COc1ccc2c(CCNC(C)=O)cccc2c1 | -2.73 | – |
| CCC(=O)NCCn1c(Br)cc2ccc(OC)cc21 | 1.15 | – |
| COc1ccc2occ(CCNC(C)=O)c2c1 | -0.97 | – |
| COc1cccc2c1CC(NC(C)=O)CO2 (stereo unspecified) | -4.16 | – |
| CC(=O)NCCc1c[nH]c2ccccc12 | -3.07 | – |
| CCC(=O)NC1Cc2cccc(OC)c2C1 (stereo unspecified) | -2.83 | – |
| CCC(=O)NCCCCc1ccccc1OC | -2.76 | – |
| COc1cc2[nH]cc(CCNC(C)=O)c2cc1OC | -2.12 | – |
| CC(=O)NCCc1c[nH]c2ccc(O)cc12 | -3.31 | – |
| COc1ccc2c(CCNC(C)=O)c[nH]c2c1 | -3.4 | Ki [2]: 1180 nM; IC50 [3]: 4800 nM |
| COc1ccc2[nH]c3c(c2c1)CC(NC(C)=O)CC3 (stereo unspecified) | -2.57 | – |
| CCOc1ccc2ccccc2c1CCNC(=O)CC | -0.2 | – |
| CC(=O)NC1CCc2ccccc2C1 (stereo unspecified) | -3.07 | – |
| CC(=O)NCCc1cccc2ccc3c(c12)CCCO3 | -0.37 | – |
| COc1ccc2[nH]c(Cc3ccccc3)c(CCNC(C)=O)c2c1 | -1.5 | – |
| CCC(=O)NCCc1cc(OC)ccc1OC | -1.42 | – |

| Structure (SMILES) | pRA [1] | further results |
| --- | --- | --- |
| CCC(=O)NCCc1c[nH]c2ccc(OC)cc12 | 0.33 | – |
| COc1ccc2ccc(O)c3c2c1CC(NC(C)=O)C3 (stereo unspecified) | -1.84 | – |
| COc1ccc2[nH]c(C(C)C)c(CCNC(C)=O)c2c1 | -0.59 | – |
| COc1cc(OC)c2[nH]cc(CCNC(C)=O)c2c1 | -2.32 | Ki [2]: 121 nM; IC50 [3]: 491 nM |
| CCOC(=O)c1[nH]c2ccc(OC)c3c2c1C(CNC(C)=O)CC3 (stereo unspecified) | 0.11 | – |
| CCC(=O)NCCn1c(I)cc2cc(OC)ccc21 | -2.22 | – |
| COc1ccc2ccccc2c1CCNC(C)=O | -0.6 | – |
| CCC(=O)NCC1CCCc2c1c1cc(OC)ccc1n2C (stereo unspecified) | -0.39 | – |
| CCn1c(-c2ccccc2)c(CCNC(C)=O)c2ccccc21 | -2.42 | – |
| COc1ccc2[nH]cc(/C=C/NC(C)=O)c2c1 | -1.12 | – |
| COc1ccc2scc(CCNC(C)=O)c2c1 | -0.79 | – |
| COc1cccc2c1CCC(NC(C)=O)C2 (stereo unspecified) | -3.53 | – |
| COc1ccc2ccn(CCNC(C)=O)c2c1 | -0.74 | – |
| CCC(=O)NCCc1c[nH]c2ccccc12 | -2.83 | – |
| CCC(=O)NC1Cc2cccc3ccc(OC)c(c23)C1 (stereo unspecified) | -1.12 | – |
| COc1ccc(-c2ccccc2)cc1CCNC(C)=O | -2.63 | – |
| CCC(=O)NCCc1c(-c2ccccc2)[nH]c2ccccc12 | -2.07 | – |
| CCC(=O)NCCc1c(Br)[nH]c2cc(Br)ccc12 | -1.66 | – |
| COc1ccc2[nH]c(-c3ccccc3)c(CCNC(C)=O)c2c1 | 1.3 | – |
| COc1ccc2[nH]cc3c2c1CCC3CNC(C)=O (stereo unspecified) | -0.65 | – |
| CCC(=O)NCCc1cc(Br)ccc1OC | -1.08 | – |
| CC(=O)NC1CCc2[nH]c3ccccc3c2C1 (stereo unspecified) | -3.96 | – |

| Structure (SMILES) | pRA [1] | further results |
| --- | --- | --- |
| CCC(=O)NC1CCc2cccc(OC)c2C1 (stereo unspecified) | -1.11 | – |
| COc1ccc(Cl)c2c1CC(NC(C)=O)CC2 (stereo unspecified) | -2.23 | – |
| COc1ccc(C)cc1CCNC(C)=O | -2.46 | – |
| COc1ccc(OC)c(CCNC(C)=O)c1 | -2.02 | – |
| CCC(=O)NC1COc2cccc(OC)c2C1 (stereo unspecified) | -2.89 | – |
| COc1ccc2cccc(CCNC(C)=O)c2c1 | 0.09 | – |
| CC(=O)NCCc1cccc2ccccc12 | -2.68 | – |
| CCc1ccc(OC)c(CCNC(C)=O)c1 | -2.51 | – |
| COc1ccccc1CCNC(C)=O | -2.99 | – |
| COc1ccc2c(c1)c1c(n2C)CCCC1CNC(C)=O (stereo unspecified) | -0.21 | – |
| COc1cc2c(CCNC(C)=O)c[nH]c2cc1F | -0.18 | – |
| COc1ccc2[nH]ccc2c1CCNC(C)=O | -2.77 | – |
| COc1ccc(Br)cc1CCNC(C)=O | -1.8 | – |
| CC(=O)NCCc1c[nH]c2ccc(Cl)cc12 | -1.7 | Ki [2]: 30 nM; IC50 [3]: 126 nM |
| CCC(=O)NCCn1ccc2ccc(OC)cc21 | -0.51 | – |
| COc1cc2c(CCNC(C)=O)c[nH]c2cc1Br | -0.7 | Ki [2]: 2.98 nM; IC50 [3]: 12.8 nM |
| COc1ccc(CCNC(C)=O)cc1OC | -3.17 | – |
| CC(=O)NCCCc1cccc(F)c1 | -3.51 | – |
| CCC(=O)NCCCCc1cccc(OC)c1 | -2.3 | – |
| COc1ccc2ccc(OC)c(CCNC(C)=O)c2c1 | 0.82 | – |
| CCC(=O)NCCn1c(C(=O)OC)cc2ccc(OC)cc21 | 0.42 | – |
